Results reported in paper PMC5640902, “Monitoring multiple myeloma by idiotype-specific peptide binders of tumor-derived exosomes” (Molecular Cancer, 2017).
Positions of bridges follow the written chain, without caps; N, C: chain ends. No end group written: not given here.

Assays:
[1] = tested on: A20-derived exosomes; experiment: Exosome immunocapture (anti-CD63 SMNPs) and flow cytometry, A20-derived exosomes; type: binding, murine; conditions: exosomes trapped on anti-CD63 SMNPs; FITC-conjugated p5 peptide; Fig. 4
Protocol: (§1) Exosomes were isolated from 250 μL of blood and 10 mL of cell supernatant respectively using ExoQuick solutions [System Biosciences – SBI, Palo Alto, California, US] and ExoQuick-TC™ [System Biosciences], according to the manufacturer’s protocol. Briefly, serum and cell supernatants were centrifuged at 3000×g for 15 min to remove cells and cell debris. The supernatant was transferred to a sterile vessel and the recommended volume of ExoQuick solution or ExoQuick-TC™ were added to the bio-fluids. After brief vortex, samples were stored 30 min at 4 °C and then centrifuged at 1500 x g for 30 min at room temperature. After removing the supernatant, the pellet was suspended in nuclease-free water.
(§2) Isolated exosomes from serum or cell supernatants were suspended in 1 ml of 1X PBS. Exosome aliquots (500 μl) were labeled with 50 μl of 10X Exo-Red [SBI] according to manufacturer’s instructions. The exosomes were re-isolated using the addition of 100 μl ExoQuick followed by precipitation for 30 min at +4 °C. The labeled exosome pellet was suspended in 500 μl 1X PBS and stained with CD63-coupled magnetic beads provided by SBI’s Exo-Flow IP kit [SBI] and with the FITC-conjugated peptides.

[2] = tested on: 5T33MM-derived exosomes; experiment: Exosome immunocapture (anti-CD63 SMNPs) and flow cytometry, 5T33MM-derived exosomes; type: binding, murine; conditions: exosomes from cell supernatant trapped on anti-CD63 SMNPs; FITC-conjugated reagent; Fig. 4
Protocol: as §1, §2

[3] = tested on: IM9-derived exosomes; experiment: Exosome immunocapture (anti-CD63 SMNPs) and flow cytometry, IM9-derived exosomes; type: binding, human; conditions: exosomes trapped on anti-CD63 SMNPs; FITC-conjugated p5 peptide; Fig. 4
Protocol: as §1, §2

[4] = tested on: 5T33MM cells; experiment: Confocal microscopy of FITC-conjugated peptide co-localization with the BCR complex; type: cell-based, murine; conditions: FITC-conjugated p5 peptide, non-permeabilized cells, anti-mouse IgG co-staining; Fig. 2c
Protocol: (§3) Cultured 5T33MM, A20 and IM9 cells as well as primary B cells from MM patient and healthy donor were washed and suspended at the density of 10^6 cells/ml in FACs Flow Buffer [BD Biosciences]. All subsequent washing and incubations were carried out in the same buffer on ice. Cells were incubated with 20 μg/ml of FITC-conjugated peptides for 10 min on ice, then washed twice, and analyzed by flow cytometry [FACSCalibur, BD Biosciences]. For peptide co-localization with the BCR complex, 5T33MM cells (10^6 cells/ml) were stained with FITC-conjugated peptides [10 μg/ml) and goat anti-mouse IgG-Alexa fluor 568 [Thermo Fisher]. After extensive washing, cells were mounted under cover slip, and visualized by confocal microscopy [Leica TC-SP2].

[5] = tested on: polyclonal mouse Igs; experiment: ELISA binding of biotinylated peptide to control polyclonal mouse Igs; conditions: biotinylated-p5 peptide, Fig. 2a
Protocol: (§4) Single strand DNA (ssDNA) was extracted from the selected phage clones by phenol/chlorophorm purification followed by ethanol precipitation. DNA fragment codifying the peptide ligand was amplified by PCR and sequenced to get the primary structure of amino acid sequence for the peptide synthesis. Synthesized peptides were purchased from Caslo Laboratory ApS [Caslo, Kongens Lyngby, DE]. The specific binding of peptides to the 5T33MM sIgG was analyzed by ELISA, as follows. Streptavidin coated 96 well plates were washed extensively and supplemented with biotin-conjugated peptides by 1 h-incubation at 37 °C; then, after washing and blocking with blocking solution (1X PBS, 0.05% Tween-20, 5% milk), aliquots of 5T33MM sIgG (1 μg/ml in blocking buffer) were added overnight at 4 °C. Wells were extensively washed and coated with the anti-mouse IgG (Fc-specific) alkaline phosphatase-conjugated [Sigma Aldrich] for 1 h at 37 °C, incubated with the alkaline phosphatase substrate [Sigma Aldrich], and analyzed by an ELISA reader at 405 nm [Labsystems multiscan MS].
(§5) The random peptide insert was flanked by a pair of cysteines resulting in cyclized peptide exposed on M13 coat protein. After three rounds of affinity selection, single phage clones were purified and tested by enzyme-linked immunosorbent assay (ELISA) for binding to the 5T33MM Igs or control Igs, as previously described. […]

[6] = tested on: A20 secreted IgG; experiment: ELISA binding of biotinylated peptide to control A20 secreted IgG; design: species or system murine; conditions: biotinylated-p5 peptide; control Ig; Fig. 2a
Protocol: as §4, §5

[7] = tested on: 5T33MM cells; experiment: In vitro cell binding of FITC-conjugated peptides by flow cytometry; type: cell-based, murine; conditions: 10 min on ice, Fig. 2b
Protocol: as §3

[8] = tested on: mIg-5T33MM; experiment: ELISA binding of biotin-conjugated Id-peptides to 5T33MM Ig (Scatchard plot analysis); design: species or system murine; conditions: biotinylated-p5 peptide at different concentrations; Fig. 2a
Protocol: as §4, §5

reactivity against polyclonal mouse Igs by ELISA [5]	reactivity against A20 secreted IgG by ELISA [6]	Sequence	detection of exosomes released from murine A20 B-lymphoma cells [1]	detection of 5T33MM-derived exosomes by flow cytometry [2]	detection of exosomes released from human IM9 multiple myeloma cells [3]	localization on 5T33MM cells by confocal microscopy [4]	recognition of 5T33MM target cells by flow cytometry [7]	reactivity to the cognate antibody (5T33MM-Igs) by ELISA [8]
did not react	did not react	CIGNSNTLC (disulfide 1-9 (inferred)) [p5, used biotinylated or FITC-conjugated]	did not detect	equally detected	did not detect	bound to the 5T33MM cell surface and also localized inside the cells	recognized 5T33MM target cells in a dose-dependent manner	concentration-dependent specific reactivity
–	–	CGGNGPGLC [pCNT, irrelevant peptide (…) included as a negative control, FITC-conjugated, reference compound]	–	undetected	–	–	did not	–
